Laboratory results from patent US20130143933A1, “TARGETED CORRECTION OF A GENETIC DEFECT IN CANCER THERAPY” (TRT Pharma Inc., priority 2011, published 2013).

Key:
[1] = tested on: A2ARE-dependent reporter activity in A549 cells; experiment: ARE-dependent luciferase assay (A2ARE-luc reporter) in A549 cells; type: cell-based; details: NR16 at 1, 2.5 and 5 μM, NR13 at 2.5 μM, 24 hours, vs DMSO vehicle
Procedure: A549 cells are highly resistant to carboplatin and constitutively express high level of Nrf2 due to a mutation (G333C) in Keap1. Using ARE-dependent luciferase assays in A549 cells, which have constitutively high Nrf2 levels, the 18 compounds that are designed to target the CTD of Keap1 are tested. Included amongst these are NR16 and NR13. […] A2ARE-luc plasmid is transiently transfected into A549 cells. pRL-TK is included as internal control. Transfected cells are treated with DMSO vehicle, compound NR16 at 1, 2.5 and 5 μM as well as NR13 at 2.5 μM for 24 hours. **p<0.005, ***p<0.0005 when compared with DMSO vehicle.
A2ARE-luc and pRL-TK plasmids are transiently transfected into A549 cells. 6 hours after transfection, the transfected cells are exposed to DMSO vehicle control or compound at designated doses (5 μM) for 24 hours. ***p<0.0001 when compared with vehicle control.

Nrf2 [2] = experiment: Immunoblotting of Nrf2 protein levels in A549 cells; type: cell-based; details: 48 hours, NR16 at 1 and 5 μM, compared to DMSO
Procedure: This effect is mediated by a depletion of Nrf2, as confirmed by immunoblotting of Nrf2 protein levels in A549 cells, exposed to NR16 for 48 hours (FIG. 4).

H460 cells = experiment: Sensitization to paclitaxel, AlamarBlue cell survival, H460; type: cell-based; details: PF at 10 and 50 nm, range of paclitaxel doses
Procedure: PF-04691502 is tested to determine is it sensitizes H460 cells to paclitaxel in vitro, using two concentrations of PF (10 and 50 nm) and a range of paclitaxel doses. Cell survival is measured using AlamarBlue and fluorescence detection for viable (metabolically active) cells with 560Exnm/590EMnm filters.

[3] = tested on: phospho-GSK at Ser9 position; experiment: phospho-GSK (Ser9) level in H460 cells exposed to PF-04691502; type: cell-based; details: H460 cells (PI3K E545K, Keap1 D286H); within 6 hours
Procedure: (§1) H460 cells, which bear both mutations in PI3K (E545K) and Keap1 (D286H) are exposed the cells to the dual and potent PI3K and mTOR inhibitor PF-04691502 currently in clinical development. Within 6 hours a dramatic drop in phospho-GSK at the critical Ser9 position is detected (FIG. 6A). Within 24 hours cellular Nrf2 is reduced (FIG. 6A). This is not observed even at a higher dose in A549 cells, which have wild type PI3K (FIG. 6B).

MCF7 cells = experiment: Sensitization to cisplatin or paclitaxel in Keap1-depleted (siRNA) MCF7 cells, Alamar blue; type: cell-based; details: MCF7 cells with Keap1 depletion (siRNA); PF-04691502 50nM for 24 h
Source text: To further test the specific cytotoxicity of PF-04691502, H460 cells are transfected with an siRNA specifically designed to deplete GSK-3R levels. Another siRNA that depletes Keap1 is used to test whether cells which have an activating mutation of PI3K, but WT Keap1, (e.g. MCF7), are sensitized by PF-04691502 when Keap1 is depleted. The pSuper platform (OligoEngine, Seattle, Wash.) is used to clone both siRNAs. Small inhibitory RNA sequences are designed using software available online at invitrogen.com. The siRNA, when dimerized form Bgl II and Hind III restriction sites. The oligos are cloned into the Bgl II/Hind III sites of the pSuper-puro vector.
These experiments confirm that the proposed mechanism of sensitization is GSK-dependent in Keap1 mutated or depleted (siRNA) cells. Cells are exposed to PF-04691502 50nM for 24 h, at which time media is replaced with fresh PF-04691502 and one of either cisplatin or paclitaxel is added at various doses. Cell survival is determined using Alamar blue. The shift in IC50 is determined.

pAkt (and pGSK-3β) = details: mouse xenograft models; oral, once daily, 10 mg/Kg; cited from earlier work
Nrf2 [4] = experiment: Cellular Nrf2 level in H460 cells exposed to PF-04691502; type: cell-based; details: within 24 hours
Procedure: as §1

A549 = experiment: Sensitization to paclitaxel, AlamarBlue cell survival, A549; type: cell-based; details: A549, Keap1 mutation but wild type PI3K
[5] = tested on: A549 cells (wild type PI3K); experiment: phospho-GSK / Nrf2 level in A549 cells exposed to PF-04691502; type: cell-based; details: even at a higher dose
Procedure: as §1

MCF-7 cells = experiment: Sensitization to paclitaxel, AlamarBlue cell survival, MCF-7; type: cell-based; details: MCF-7, PI3K mutation but no Keap1 mutation

SMILES	A2ARE-dependent reporter activity [1]	Nrf2 protein level (western blot) (Nrf2 [2])	sensitization to paclitaxel (cell survival) (H460 cells)	phospho-GSK at Ser9 position [3]	sensitization to cisplatin or paclitaxel (cell survival) (MCF7 cells)	depletion of phosphorylated forms of proteins in the PI3K pathway such as pAkt (and pGSK-3β) (pAkt (and pGSK-3β))	persistence of depletion of phosphorylated PI3K pathway proteins (pAkt (and pGSK-3β))	cellular Nrf2 (Nrf2 [4])	sensitization to paclitaxel (cell survival) (A549)	drop in phospho-GSK / reduction of cellular Nrf2 [5]	sensitization to paclitaxel (cell survival) (MCF-7 cells)
O=C(CCCSCCCC(=O)N/N=C/c1ccccc1)N/N=C/c1ccccc1 [NR13]	inactive	inactive	–	–	–	–	–	–	–	–	–
O=C(CCCSCCCC(=O)N/N=C/c1ccccc1O)N/N=C/c1ccccc1O [NR16]	suppressed A2ARE-dependent reporter activity	dose-dependent decrease	–	–	–	–	–	–	–	–	–
COc1ccc(-c2cc3c(C)nc(N)nc3n([C@H]3CC[C@H](OCCO)CC3)c2=O)cn1 [PF-04691502]	–	–	significant sensitization	dramatic drop	sensitizing effect	significant depletion	≥ 8 h	reduced	no sensitization	not observed	no sensitization
